Measured values published in US8067441B2, “Use of collismycin and derivatives thereof as oxidative stress inhibitors” (Neuropharma, S.A., priority 2005, dated 2011).

Tests used:
Assay type in all cases: cell-based
[1] = system: SH-SY5Y human neuroblastoma cells; test: Protection against hydrogen peroxide-induced cell death (LDH); details: 1 h preincubation, H2O2 100 μM, 24 h
Method: The aim of this assay is to determine the neuroprotective effect of the compounds of formula (I), when human neuroblastoma cells are exposed to oxidative stress induced by hydrogen peroxide, which is highly deleterious to the cell and its accumulation causes oxidation of cellular targets such as DNA, proteins, and lipids leading to mutagenesis and cell death.
SH-SY5Y human neuroblastoma cells are seeded into 96-well culture plate at a density of 10^4 cells/well. Cells are exposed to the different concentrations of the compound one hour before the treatment with H2O2 100 μM during 24 h. 5 mM NAC, a known anti-oxidant agent was used as a positive control, and preincubated 1 hour before the treatment with H2O2. After 24 h, the medium is removed and cells attached to the bottom of the well are lysed by adding 50 μl of Triton X-100 1% in Krebs-Hepes during 5 minutes at room temperature.
Cell survival was determined in parallel in the same assay.

[2] = system: SH-SY5Y human neuroblastoma cells; test: Protection against 6-OHDA-induced cell death, condition A (2 h preincubation, 10% serum); details: 6-OHDA 75 μM, 16 h, medium with 10% foetal bovine serum
From the text: (§1) The aim of this experiment is to determine the protective effect of the compounds of formula (I) against the toxicity caused by 6-hydroxydopamine (6-OHDA). This toxin induces a cell death similar to which occurs in Parkinson's disease, destroying dopaminergic neurons (“MPTP and 6-hydroxydopamine-induced neurodegeneration as models for Parkinson's disease: neuroprotective strategies”; Grunblatt E, et al.; J Neurol. 2000 April; 247 Suppl 2:1195-102).
(§2) Cells are exposed to the treatment with 6-OHDA and, finally, cell death is measured by LDH quantification. As positive control we used NAC. The assay is performed in two different experimental conditions:
A) NAC and the compound of formula (I) are preincubated during 2 hours before the treatment with 6-OHDA 75 μM during 16 hours. The assay is performed in medium containing 10% Foetal bovine serum.

[3] = system: SH-SY5Y human neuroblastoma cells; test: Protection against 6-OHDA-induced cell death, condition B (1 h preincubation, no serum); details: 6-OHDA 50 μM, 24 h, medium without fetal bovine serum
From the text: as §1, §2
B) NAC and the compound of formula (I) are preincubated during 1 hour before the treatment with 6-OHDA 50 μM during 24 hours. The assay is performed in medium without any fetal bovine serum.

Row | SMILES | lowest concentration at which neuroprotective effects were detected [1] [µM] | minimum concentration at which neuroprotective [2] [µM] | minimum concentration showing neuroprotective effect [3] [µM] | neuroprotective activity against 6-OHDA (concentration not given) [2]
1 | COc1cc(/C=N/O)nc(-c2ccccn2)c1 [Caerulomycin A] | 0.05 | 1 | 1 | –
2 | COc1cc(-c2ccccn2)nc(CO)c1SC [Collismycin C] | 10 | – | 10 | neuroprotective activity
3 | CSc1cc(C#N)nc(-c2ccccn2)c1 [Compound 1, 4-Methylsulfanyl-[2,2′]bipyridinyl-6-carbonitrile] | 5 | – | – | –
4 | O/N=C/c1nc(-c2ccccn2)ccc1F [Compound 2, 5-Fluoro-[2,2′]bipyridinyl-6-carbaldehyde oxime] | 0.5 | – | 0.5 | neuroprotective activity
5 | O/N=C/c1nc(-c2cnccn2)ccc1F [Compound 3, 3-Fluoro-6-pyrazin-2-yl-pyridine-2-carbaldehyde oxime] | 10 | – | – | neuroprotective activity
